Experimental findings from US20230220021A1, “CYCLIC PEPTIDE INHIBITORS OF PSD-95 AND USES THEREOF” (University of Copenhagen, priority 2020, published 2023) are described below.

The test deals with T1, PSD-95-PDZ2 (Homo sapiens, UniProt P78352).
T1 construct: 7xHis (N); made in house; host or cells: Escherichia coli B21 pLys (for the mutants, 'as previously described')
Kind of test: Fluorescence polarization (FP) competition assay against cyclic nNOS TAMRA probe. Conditions: for Relative Ki (Ki mut/Ki WT): FP inhibition constant normalized to WT value; for Ki: cyclic nNOS TAMRA probe, mean of triplicates, N.B. = not binding, read-out: Ki. The format is binding. On the technique in general: In fluorescence polarisation assays a small probe gives low polarisation when free and higher when bound to something large.

Where a SMILES comes first, the peptide text is derived from it. [ ]: non-standard residue; d: D form.

T1 sequence (P78352 160-246 limits assumed): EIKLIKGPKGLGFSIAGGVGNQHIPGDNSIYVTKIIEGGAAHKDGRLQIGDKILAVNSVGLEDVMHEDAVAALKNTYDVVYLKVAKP

Take `CC[C@H](C)[C@@H]1NC(=O)[C@H]([C@@H](C)O)NC(=O)[C@H](CCCCN)NC(=O)[C@@H]2CCCN2C(=O)[C@H]([C@@H](C)O)NC(=O)CNC(=O)[C@H](CC(=O)O)NC(=O)CNC(=O)[C@H]([C@@H](C)O)NC(=O)[C@H](Cc2ccccc2)NC(=O)[C@H]([C@@H](C)O)NC(=O)[C@H]([C@@H](C)O)NC(=O)[C@H](CCC(=O)O)NC(=O)[C@H](CC(C)C)NC(=O)[C@H](Cc2ccccc2)NC(=O)[C@H]([C@@H](C)O)NC(=O)[C@H](CCC(N)=O)NC(=O)CNC(=O)[C@H]2CCCN2C(=O)[C@H](CCC(N)=O)NC(=O)[C@H]([C@@H](C)O)NC(=O)[C@H](C(C)C)NC(=O)[C@H](CCCNC(=N)N)NC1=O` [compound 27] (cyclo(TFLETTFTGDGTPKTIRVTQ[dP]GQ)): the “Relative Ki (Ki mut/Ki WT)” value stood at 0.79.
As for `CC[C@H](C)[C@@H]1NC(=O)[C@H]([C@@H](C)O)NC(=O)[C@H](CCCCN)NC(=O)[C@@H]2CCCN2C(=O)[C@H]([C@@H](C)O)NC(=O)CNC(=O)[C@H](CC(=O)O)NC(=O)CNC(=O)[C@H]([C@@H](C)O)NC(=O)[C@H](Cc2ccccc2)NC(=O)[C@H]([C@@H](C)O)NC(=O)[C@H](CO)NC(=O)[C@H](CCC(=O)O)NC(=O)[C@H](CC(C)C)NC(=O)[C@H](Cc2c[nH]cn2)NC(=O)[C@H]([C@@H](C)O)NC(=O)[C@H](CCC(N)=O)NC(=O)CNC(=O)[C@H]2CCCN2C(=O)[C@H](CCC(N)=O)NC(=O)[C@H]([C@@H](C)O)NC(=O)[C@H](C(C)C)NC(=O)[C@H](CCCNC(=N)N)NC1=O` [compound 52] (cyclo(THLESTFTGDGTPKTIRVTQ[dP]GQ)), the “Relative Ki (Ki mut/Ki WT)” value is reported as 2.51.
One may read the Ki as the dissociation constant of the complex between target and ligand, obtained from inhibition or displacement. For `CC[C@H](C)[C@@H]1NC(=O)[C@H]([C@@H](C)O)NC(=O)[C@H](CCCCN)NC(=O)[C@@H]2CCCN2C(=O)[C@H]([C@@H](C)O)NC(=O)CNC(=O)[C@H](CC(=O)O)NC(=O)CNC(=O)[C@H]([C@@H](C)O)NC(=O)[C@H](Cc2ccccc2)NC(=O)[C@H](CCC(=O)O)NC(=O)[C@H]([C@@H](C)O)NC(=O)[C@H](CCC(=O)O)NC(=O)[C@H](CC(C)C)NC(=O)[C@H](Cc2c[nH]cn2)NC(=O)[C@H]([C@@H](C)O)NC(=O)[C@H](CCC(N)=O)NC(=O)CNC(=O)[C@H]2CCCN2C(=O)[C@H](CCC(N)=O)NC(=O)[C@H]([C@@H](C)O)NC(=O)[C@H](C(C)C)NC(=O)[C@H](CCCNC(=N)N)NC1=O` [compound 53] (cyclo(THLETEFTGDGTPKTIRVTQ[dP]GQ)), the “Relative Ki (Ki mut/Ki WT)” value is reported as 0.34. The Ki (FP competition) was 11500 nM.
Take `CC[C@H](C)[C@@H]1NC(=O)[C@H]([C@@H](C)O)NC(=O)[C@H](CCCCN)N(C)C(=O)[C@@H]2CCCN2C(=O)[C@H]([C@@H](C)O)NC(=O)CNC(=O)[C@H](CC(=O)O)NC(=O)CNC(=O)[C@H]([C@@H](C)O)NC(=O)[C@H](Cc2ccccc2)NC(=O)[C@H]([C@@H](C)O)NC(=O)[C@H]([C@@H](C)O)NC(=O)[C@H](CCC(=O)O)NC(=O)[C@H](CC(C)C)NC(=O)[C@H](Cc2c[nH]cn2)NC(=O)[C@H]([C@@H](C)O)NC(=O)[C@H](CCC(N)=O)NC(=O)CNC(=O)[C@H]2CCCN2C(=O)[C@H](CCC(N)=O)NC(=O)[C@H]([C@@H](C)O)NC(=O)[C@H](C(C)C)NC(=O)[C@H](CCCNC(=N)N)NC1=O` [compound 96]: under “FP competition”, the Ki turned out to be 480 nM.
Take `CC[C@H](C)[C@@H]1NC(=O)[C@H]([C@@H](C)O)NC(=O)[C@H](CCCCN)NC(=O)[C@@H]2CCCN2C(=O)[C@H]([C@@H](C)O)NC(=O)CNC(=O)[C@H](CC(=O)O)NC(=O)CNC(=O)[C@H]([C@@H](C)O)NC(=O)[C@H](Cc2ccccc2)NC(=O)[C@H]([C@@H](C)O)NC(=O)[C@H]([C@@H](C)O)NC(=O)[C@H](CCC(=O)O)NC(=O)[C@H](CC(C)C)NC(=O)[C@H](Cc2c[nH]cn2)NC(=O)[C@H]([C@@H](C)O)NC(=O)[C@H](CCC(N)=O)NC(=O)CNC(=O)[C@H]2CCCN2C(=O)[C@H](CCC(N)=O)NC(=O)[C@H]([C@@H](C)O)NC(=O)[C@H](CCCNC(=N)N)NC(=O)[C@H](CCCNC(=N)N)NC1=O` [compound 43] (cyclo(THLETTFTGDGTPKTIRRTQ[dP]GQ)): the “Relative Ki (Ki mut/Ki WT)” value worked out at 1.13.
As for `CC[C@H](C)[C@@H]1NC(=O)[C@H]([C@@H](C)O)NC(=O)[C@H](CCCCN)NC(=O)[C@@H]2CCCN2C(=O)[C@H]([C@@H](C)O)NC(=O)CNC(=O)[C@H](CC(=O)O)NC(=O)CNC(=O)[C@H]([C@@H](C)O)NC(=O)[C@H](Cc2ccccc2)NC(=O)[C@H]([C@@H](C)O)NC(=O)[C@H]([C@@H](C)O)NC(=O)[C@H](CCC(=O)O)NC(=O)[C@H](CC(C)C)NC(=O)[C@H](Cc2c[nH]cn2)NC(=O)[C@H]([C@@H](C)O)NC(=O)[C@H](CCC(N)=O)NC(=O)CNC(=O)[C@H]2CCCN2C(=O)[C@H](CCC(N)=O)NC(=O)[C@H](Cc2ccccc2)NC(=O)[C@H](C(C)C)NC(=O)[C@H](CCCNC(=N)N)NC1=O` [compound 48] (cyclo(THLETTFTGDGTPKTIRVFQ[dP]GQ)), the “Relative Ki (Ki mut/Ki WT)” value is listed as 1.05.
In the case of `CC[C@H](C)[C@@H]1NC(=O)[C@H]([C@@H](C)O)NC(=O)[C@H](CCCCN)N(C)C(=O)[C@@H]2CCCN2C(=O)[C@H]([C@@H](C)O)NC(=O)CNC(=O)[C@H](CC(=O)O)NC(=O)CNC(=O)[C@H]([C@@H](C)O)NC(=O)[C@H](Cc2ccccc2)NC(=O)[C@H]([C@@H](C)O)NC(=O)[C@H]([C@@H](C)O)NC(=O)[C@H](CCC(=O)O)NC(=O)[C@H](CC(C)C)NC(=O)[C@H](Cc2c[nH]cn2)NC(=O)[C@H]([C@@H](C)O)NC(=O)[C@H](CCC(N)=O)NC(=O)CNC(=O)[C@H]2CCCN2C(=O)[C@H](CCC(N)=O)NC(=O)[C@H]([C@@H](C)O)NC(=O)[C@H](C(C)C)NC(=O)[C@H](CCCNC(=N)N)NC1=O` [SEQ ID NO: 96], the “fold improved binding affinity” value (FP competition, N-methylation) amounted to 2 fold. In addition, the Ki (FP competition) came out at 500 ± 100 nM.
Take `CC[C@H](C)[C@@H]1NC(=O)[C@H]([C@@H](C)O)NC(=O)[C@H](CCCCN)NC(=O)[C@@H]2CCCN2C(=O)[C@H]([C@@H](C)O)NC(=O)CNC(=O)[C@@H]2CCCN2C(=O)CNC(=O)[C@H]([C@@H](C)O)NC(=O)[C@H](Cc2ccccc2)NC(=O)[C@H]([C@@H](C)O)NC(=O)[C@H]([C@@H](C)O)NC(=O)[C@H](CCC(=O)O)NC(=O)[C@H](CC(C)C)NC(=O)[C@H](Cc2c[nH]cn2)NC(=O)[C@H]([C@@H](C)O)NC(=O)[C@H](CCC(N)=O)NC(=O)CNC(=O)[C@H]2CCCN2C(=O)[C@H](CCC(N)=O)NC(=O)[C@H]([C@@H](C)O)NC(=O)[C@H](C(C)C)NC(=O)[C@H](CCCNC(=N)N)NC1=O` [compound 29] (cyclo(THLETTFTGPGTPKTIRVTQ[dP]GQ)): the “Relative Ki (Ki mut/Ki WT)” value is reported as 1.60.
Regarding `CC[C@H](C)[C@@H]1NC(=O)[C@H]([C@@H](C)O)NC(=O)[C@H](CCCCN)NC(=O)[C@@H]2CCCN2C(=O)[C@H](CC(=O)O)NC(=O)CNC(=O)[C@H](CC(=O)O)NC(=O)CNC(=O)[C@H](Cc2c[nH]c3ccccc23)NC(=O)[C@H](Cc2ccccc2)NC(=O)[C@H]([C@@H](C)O)NC(=O)[C@H]([C@@H](C)O)NC(=O)[C@H](CCC(=O)O)NC(=O)[C@H](CC(C)C)NC(=O)[C@H](Cc2c[nH]cn2)NC(=O)[C@H]([C@@H](C)O)NC(=O)[C@H](CCC(N)=O)NC(=O)CNC(=O)[C@H]2CCCN2C(=O)[C@H](CCC(N)=O)NC(=O)[C@H]([C@@H](C)O)NC(=O)[C@H](C(C)C)NC(=O)[C@H](CCCNC(=N)N)NC1=O` [compound 130] (cyclo(THLETTFWGDGDPKTIRVTQ[dP]GQ)), the Ki (FP competition) was 650 nM.
